Test results: ChEMBL document CHEMBL3286127, “Aminoadamantanes with persistent in vitro efficacy against H1N1 (2009) influenza A” (J Med Chem, 2014)
pEC50: −log10 of the molar value. The source made the active and inactive calls. The rule behind the calls is not given here.

Legend:
Influenza A virus [1] = experiment: Antiviral activity against Influenza A virus A/Victoria/3/75(H3N2) infected in MDCK cells expressing wild type M2 after overnight incubation by fluorescence-based miniplaque assay; format: functional, organism-based
Influenza B virus = experiment: Antiviral activity against Influenza B virus B/Russia/69 infected in MDCK cells at 50 uM; format: functional, organism-based
MDCK [2] = experiment: Cytotoxicity against MDCK cells at 50 uM after 18 hrs; format: cell-based, Canis lupus familiaris; conditions: dog
Influenza A virus [3] = experiment: Antiviral activity against Influenza A virus A2/Taiwan/1/64(H2N2) infected in MDCK cells expressing wild type M2 after overnight incubation by fluorescence-based miniplaque assay; format: functional, organism-based
HEK293 = format: cell-based; conditions: Influenza A virus (A/California/07/2009(H1N1)), 10 uM
Bovine parvovirus = experiment: Antiviral activity against Bovine parvovirus infected in bovine embryonic cells at 50 uM; format: functional, cell-based
MDCK [4] = experiment: Cytotoxicity against MDCK cells at 5 uM after 18 hrs; format: cell-based, Canis lupus familiaris; conditions: dog

Row | Compound | pEC50 (Influenza A virus [1]) | Activity (Influenza B virus) | Activity (MDCK [2]) | pEC50 (Influenza A virus [3]) | Activity (HEK293) [%] | Activity (Bovine parvovirus) | Activity (MDCK [4])
1 | CC1(N)C2CC3CC(C2)CC1C3 (centres undefined) | 5.70 | inactive | Non-toxic | 6.30 | – | – | –
2 | CCCCC1(N)C2CC3CC(C2)CC1C3 (centres undefined) | 5.40 | – | Non-toxic | 5.82 | – | – | –
3 | CC(N)C12CC3CC(CC(C3)C1)C2 (centres undefined) [RIMANTADINE] | 6.28 | – | Non-toxic | 5.80 | – | – | –
4 | CCCC1(N)C2CC3CC(C2)CC1C3 (centres undefined) | 4.64 | inactive | Non-toxic | > 6.62 | 63 | inactive | –
5 | NC1(c2ccccc2)C2CC3CC(C2)CC1C3 (centres undefined) | 5.10 | – | Non-toxic | 6.70 | – | – | –
6 | NC1(Cc2ccccc2)C2CC3CC(C2)CC1C3 (centres undefined) | 4.74 | – | Non-toxic | 6.70 | – | – | –
7 | NC12CC3CC(CC(C3)C1)C2 [AMANTADINE] | 5.56 | – | Non-toxic | 6.47 | – | – | –
8 | CC(C)CC1(N)C2CC3CC(C2)CC1C3 (centres undefined) | 4.89 | – | Non-toxic | 6.40 | – | – | –
9 | CCC1(N)C2CC3CC(C2)CC1C3 (centres undefined) | 5.70 | inactive | Non-toxic | 6.10 | – | – | –
10 | NC1C2CC3CC(C2)CC1C3 (centres undefined) | 5.48 | inactive | Non-toxic | 6.10 | – | – | –
11 | CCCCCCC1(N)C2CC3CC(C2)CC1C3 (centres undefined) | 5.96 | – | – | 5.82 | – | – | Non-toxic
